Assay results taken from patent publication US12258304B2, “Compounds and methods for treatment of bacterial infections” (Albert Einstein College of Medicine, priority 2019, dated 2025).
Entries after “also recorded” stand apart in the source; their conditions may differ.

Assays:
[1] = biological target: T1, PhMqnE (MqnE from Pedobacter heparinus) (Pedobacter heparinus, UniProt C6XW09); test: PhMqnE substrate kinetics / turnover of DHC analogues; format: biochemical
Description: (§1) FIGS. 2(a), 2(b) and 2(c) illustrate inhibition studies of MqnE. […] Assays contained 0.5 μM of PhMqnE, 1 mM SAM, 1 mM DHC, and 2-FDHC varied from 5 μM to 2 mM.
(§2) The mqnE gene from Pedobacter heparinus (PhMqnE) was coexpressed together with the pPH151 plasmid, which contains the suf operon from E. coli under the control of a T7 promoter, to promote proper FeS cluster assembly in PhMqnE. […] It was surmised that positioning fluorine atoms around the aromatic ring of DHC would stabilize the captodative radical intermediate 1 by preventing it from converting to intermediate 2 in FIG. 1(a), thereby acting as a mechanism-based inhibitor and trapping the enzyme in an intermediate state. DHC analogues were synthesized with fluorine at the 2, 4, 5, and 2,4 positions of DHC (FIG. 1 (b)).

Escherichia coli = test: E. coli growth in minimal media (OD600); format: cell-based; conditions: 1 μL of 100 mM 2F-DHC in 100 μL minimal media, OD600 at 2, 3 and 4 hr
Text: (§3) FIGS. 4(a) and 4(b) illustrate E. coli and HEK293T cell growth in the presence of 2F-DHC.
(§4) Hp grows under microanaerobic conditions in the human gut, where over population can lead to ulcers and cancer. Based on the K results described above, the effects of 2F-DHC were examined on the growth of Hp in BHI medium supplemented with 10% fetal bovine serum and Hp selective supplement (DENT supplement) in 96-well plate format. Growth of Hp was detected by measuring the optical density of the media at 600 nm after 72 hr of growth at 37° C. […] To determine if 2F-DHC inhibits Hp growth by specifically blocking the action of MqnE in the futalosine pathway, it was tested whether the product of MqnE, AF, could rescue Hp growth in the presence of 2F-DHC.
(§5) As shown in FIG. 4(a), an overnight culture of E. coli was diluted 1:25 into 100 μL of minimal media with either 1 μL of DMSO (no DHC control) or 1 μL of 100 mM 2F-DHC in DMSO in a 96-well plate. The plate was shaken at 37° C. and monitored for at 2, 3, and 4 hr post inoculation by measuring the OD600. […] Cell growth and viability were measured with an automated cell counter after staining with tryptan blue (Countess, Life Technologies).

Helicobacter pylori (Hp) = test: Hp growth inhibition in liquid culture (OD600); format: cell-based
Description: Inhibition was determined by measuring the OD600 of liquid cultures incubated at 37° C. for 48 hours.
as §4

[2] = biological target: T1, PhMqnE (MqnE from Pedobacter heparinus); test: PhMqnE competition / inhibition assay (AF formation); format: biochemical
Description: as §1, §2

HEK293T cells = test: HEK293T cell growth and viability; format: cell-based, human; conditions: 1 mM 2F-DHC, 24 and 48 hr culture
Description: as §3, §5

[3] = substrate: C=C(Oc1cccc(C(=O)O)c1)C(=O)O; test: PhMqnE substrate kinetics / turnover of DHC analogues; format: biochemical, Pedobacter heparinus; conditions: other: purified PhMqnE, dithionite (DT) as electron source
[4] = media supplemented with 1 mM AF, 48 hr

Molecule: C=C(Oc1cccc(C(=O)O)c1F)C(=O)O [2F-DHC]
- fold slower product formation than with DHC as substrate ([1]; 2 mM SAM and 2 mM 2F-DHC): ~10 fold
- rate of conversion to fluorinated AF product ([1]; 2 mM SAM and 2 mM analogue as sole substrate): 0.41 min⁻¹
- effect on growth of E. coli (Escherichia coli): no effect; also recorded: No difference in growth is observed
- IC90 (Helicobacter pylori (Hp); Helicobacter pylori, 72 hr, read-out: minimal inhibitory concentration that restricts >90% of the growth (IC90)): < 23 µg/mL
- IC50 (Helicobacter pylori (Hp); Helicobacter pylori, BHI medium, 10% FBS, OD600 after 72 hr at 37° C.): 31.8 ± 2.5 µM
- inhibition at 30 µM (Helicobacter pylori (Hp); Helicobacter pylori, at ˜30 μM (6 pg/mL), 72 hr): ~50%
- growth of Hp (Helicobacter pylori (Hp); at 1 mM, 48 hr): completely inhibits growth; also recorded: fully inhibited
- growth of Hp (Helicobacter pylori (Hp); at, 72 hr): completely inhibited
- inhibition of AF production ([2]; 250 μM inhibitor, 0.5 μM PhMqnE, 1 mM SAM, 1 mM DHC): almost completely inhibited
- rate of AF formation in the presence of inhibitor ([2]; competition assay, 2 mM DHC + 2 mM analogue, 3.5 min^−1 without analogues): 0.2 min⁻¹
- Ki ([2]; fit to non-linear competitive inhibition equation, 0.5 μM PhMqnE, 1 mM SAM, 1 mM DHC): ~2 µM
- effect on HEK293T cell growth and viability (HEK293T cells): No difference in growth is observed

Molecule: Nc1ncnc2c1ncn2[C@@H]1O[C@H](CCC(=O)c2cccc(C(=O)O)c2)[C@@H](O)[C@H]1O [AF, aminofutalosine, reference compound]
- OD600 of Hp culture in the presence of 1 mM 2F-DHC (Helicobacter pylori (Hp); [4]): ~0.28
- rescue of Hp growth in the presence of 1 mM 2F-DHC (Helicobacter pylori (Hp); [4]): fully restored; also recorded: can restore growth

Molecule: C[S+](CC[C@H](N)C(=O)[O-])C[C@H]1O[C@@H](n2cnc3c(N)ncnc32)[C@H](O)[C@@H]1O (stereo partly drawn) [SAM, S-adenosyl-L-methionine, reference compound]
- Km ([1]; purified PhMqnE, dithionite (DT) as electron source): 21 µM

B1: PhMqnE (MqnE from Pedobacter heparinus) (Pedobacter heparinus DSM 2366) (protein)
chain: MDTTSKLALILADADLPAALKAIALKVQNQERITFDEGVYLYENAELGYLGVLANYIREQKHGDNTYFNRNFHIEPTNVCVYDCKFCSYSRLIKQKEEGWEMSVDGMMEVLKKYDHEPVTEVHITGGVVPKQNLEFYSDFFRRAKAHRPELHIKALTPVEYYYIFKKAKLSHYDGMKYMQEAGLDSMPGGGAEIFHPEVREKIAHDKCNAEQWLDIHEQAHKLGMKTNATMLYGHIEQFWHRVDHMERLRRQQDKTGGFQAFIPLKFRNQHNQMDHVPEVSVIEDLRNYAIARIYMDNFDHIKAYWAMISRQTAQLSLNFGVDDIDGTLDDTTKIYSMAGAEEQHPAMSTRDLVDLIKQVKRKPIERDTLYNVVTDYSQVTFEDEVKPQYYKLPVIN
- Km [3]: 72 µM
